Results on one compound are retold here after patent US20080139650A1, “Fungicidally Active Polymer Dispersions And Use Thereof” (CELANESE EMULSIONS GMBH, priority 2004, published 2008).

In the assay the test system is spores of Aspergillus niger and Aspergillus versicolor. The experiment in a line: ISO 846 Method B: determination of the fungistatic activity of films, complete nutrient medium with carbon source. It is filed as cell-based. The settings on record: summary of ISO 846 loading tests (methods A and B). The method, then:
Commercially conventional dispersions based on poly(vinyl alcohol)-stabilized poly(dibutyl maleinate-co-vinyl acetate) were, where necessary, set to the required pH using 10% strength sodium hydroxide solution and subsequently finished with fungicide. In addition, to the dispersion was added either a 1% strength ethanolic solution of the fungicide or an aqueous suspension which had been prepared by weighing out exactly 500 mg of fungicide into a 50 ml measuring flask and subsequently making up to 50 ml with deionized water to the calibration mark. After addition, the substance was distributed well in the dispersion and approximately 200 μm thick films were produced using a drawing frame with wet application of 400 μm.
The action of these films on microorganisms was determined using the method ISO 846.
The samples were applied to a complete nutrient medium (with carbon source) and inoculated with a spore suspension of various fungi. […] Method B is intended to reflect the situation of a surface contamination of the sample in practice (such as dirt or organic deposits).
The inoculum in all the determinations was performed using spores of Aspergillus niger and Aspergillus versicolor.
The samples, after expiry of the incubation period of 28 days, were assessed in methods A and B using the following rating key in accordance with ISO 846 (a, b=individual results of duplicate determination).

For `Oc1ccc(/C=C/c2cc(O)cc(O)c2)cc1` [trans-resveratrol, trans-3,5,4′-trihydroxystilbene], the “fungicidal activity in polymer dispersions made into films” value was “exhibits fungicidal activity”.
